Reference: BindingDB's records for doi:10.1021/jm960459x (University of Minnesota, 1996)

Assay: Compound was tested for the binding affinity and selectivity by competitive inhibition of radioligands on opioid delta receptor in guinea pig brain membranes

| Compound | Ki [nM] |
| --- | --- |
| CN(C(=O)Cc1ccc(Cl)c(Cl)c1)[C@H](CN1CCCC1)c1cccc(NC(=O)[C@@H](N)CC(=O)O)c1 [(S)-3-Amino-N-[3-((S)-1-{[2-(3,4-dichloro-phenyl)-acetyl]-methyl-amino}-2-pyrrolidin-1-yl-ethyl)-phenyl]-succinamic acid] | 1070 |
| CN(C(=O)Cc1ccc(Cl)c(Cl)c1)[C@H](CN1CCCC1)c1cccc(NC(=O)[C@H](N)CC(=O)O)c1 [(R)-3-Amino-N-[3-((S)-1-{[2-(3,4-dichloro-phenyl)-acetyl]-methyl-amino}-2-pyrrolidin-1-yl-ethyl)-phenyl]-succinamic acid] | 573 |
